Results as given in ChEMBL document CHEMBL3885861, “Open TG-GATES”.

Species on record: Rattus norvegicus
Experiment: Open TG-GATES - Regimen: Single
Assay type: toxicity, organism-based, Sprague-Dawley
Set-up: regimen Single, gender Male, age 6 weeks
Conditions: in vivo, po, 1000 mg/kg, route gavage, dose level High; for APTT / Bas / Eos / Fbg / Hb / Ht / Lym / MCH / MCHC / MCV / Mono / Neu / PT / Plat / RBC / Ret / WBC: tissue Blood; for KIDNEY_L / KIDNEY_R / KIDNEY_TOTAL: tissue Kidney; for LIVER: tissue Liver; for A/G / ALP / ALT / AST / BUN / CRE / Ca / Cl / DBIL / GLC / IP / K / LDH / Na / PL / RALB / TBIL / TC / TG / TP / gamma-GTP: tissue Plasma

CC[C@@H](CO)NCCN[C@@H](CC)CO [ETHAMBUTOL]
TERMINAL_BW (3 h): 224.6 g
APTT (3 h): 23.9 s
Bas (3 h): 0%
Eos (3 h): 0.8%
Fbg (3 h): 301.6 mg/dL
Hb (3 h): 13.7 g/dL
Ht (3 h): 40.3%
Lym (3 h): 81.2%
MCH (3 h): 21.3 pg
MCHC (3 h): 33.9%
MCV (3 h): 62.7 fL
Mono (3 h): 2.2%
Neu (3 h): 15.4%
PT (3 h): 15.7 s
Plat (3 h): 126.2 x10_4/uL
RBC (3 h): 643.4 x10_4/ul
Ret (3 h): 7.5%
WBC (3 h): 67.7 x10_2/uL
KIDNEY_L (3 h): 1 g
KIDNEY_R (3 h): 1 g
KIDNEY_TOTAL (3 h): 2.1 g
LIVER (3 h): 9.9 g
A/G (3 h): 1.2
ALP (3 h): 1529.4 IU/L
ALT (3 h): 41.8 IU/L
AST (3 h): 74.8 IU/L
BUN (3 h): 10.4 mg/dL
CRE (3 h): 0.1 mg/dL
Ca (3 h): 10.1 mg/dL
Cl (3 h): 106.8 meq/L
DBIL (3 h): 0 mg/dL
GLC (3 h): 173.8 mg/dL
IP (3 h): 8.7 mg/dL
K (3 h): 3.9 meq/L
LDH (3 h): 175.6 IU/L
Na (3 h): 141.6 meq/L
PL (3 h): 139 mg/dL
RALB (3 h): 3 g/dL
TBIL (3 h): 0.018 mg/dL
TC (3 h): 83.8 mg/dL
TG (3 h): 35.6 mg/dL
TP (3 h): 5.4 g/dL
gamma-GTP (3 h): 1.8 IU/L
TERMINAL_BW (6 h): 222.4 g
APTT (6 h): 22.3 s
Bas (6 h): 0%
Eos (6 h): 1%
Fbg (6 h): 308.6 mg/dL
Hb (6 h): 13.7 g/dL
Ht (6 h): 40.2%
Lym (6 h): 77.4%
MCH (6 h): 21.1 pg
MCHC (6 h): 34.1%
MCV (6 h): 61.9 fL
Mono (6 h): 2.8%
Neu (6 h): 18%
PT (6 h): 15.9 s
Plat (6 h): 123.5 x10_4/uL
RBC (6 h): 650.6 x10_4/ul
Ret (6 h): 7.1%
WBC (6 h): 70.3 x10_2/uL
KIDNEY_L (6 h): 1 g
KIDNEY_R (6 h): 1 g
KIDNEY_TOTAL (6 h): 2 g
LIVER (6 h): 9.5 g
A/G (6 h): 1.2
ALP (6 h): 1436.4 IU/L
ALT (6 h): 35.6 IU/L
AST (6 h): 67.4 IU/L
BUN (6 h): 9.8 mg/dL
CRE (6 h): 0.1 mg/dL
Ca (6 h): 10 mg/dL
Cl (6 h): 108 meq/L
DBIL (6 h): 0.002 mg/dL
GLC (6 h): 186.4 mg/dL
IP (6 h): 9.4 mg/dL
K (6 h): 4.1 meq/L
LDH (6 h): 176.4 IU/L
Na (6 h): 141.4 meq/L
PL (6 h): 134 mg/dL
RALB (6 h): 3 g/dL
TBIL (6 h): 0.03 mg/dL
TC (6 h): 75.4 mg/dL
TG (6 h): 43.2 mg/dL
TP (6 h): 5.5 g/dL
gamma-GTP (6 h): 1.4 IU/L
TERMINAL_BW (9 h): 217 g
APTT (9 h): 22.3 s
Bas (9 h): 0%
Eos (9 h): 0.2%
Fbg (9 h): 312 mg/dL
Hb (9 h): 13.9 g/dL
Ht (9 h): 40.3%
Lym (9 h): 79.2%
MCH (9 h): 22 pg
MCHC (9 h): 34.4%
MCV (9 h): 64.1 fL
Mono (9 h): 1.4%
Neu (9 h): 17.8%
PT (9 h): 16.3 s
Plat (9 h): 116.9 x10_4/uL
RBC (9 h): 630 x10_4/ul
Ret (9 h): 7.6%
WBC (9 h): 68.6 x10_2/uL
KIDNEY_L (9 h): 1 g
KIDNEY_R (9 h): 1 g
KIDNEY_TOTAL (9 h): 1.9 g
LIVER (9 h): 8.7 g
A/G (9 h): 1.1
ALP (9 h): 1464.4 IU/L
ALT (9 h): 35.8 IU/L
AST (9 h): 68.2 IU/L
BUN (9 h): 11.4 mg/dL
CRE (9 h): 0.1 mg/dL
Ca (9 h): 9.9 mg/dL
Cl (9 h): 108.2 meq/L
DBIL (9 h): 0.002 mg/dL
GLC (9 h): 177.8 mg/dL
IP (9 h): 8.8 mg/dL
K (9 h): 3.9 meq/L
LDH (9 h): 143 IU/L
Na (9 h): 140 meq/L
PL (9 h): 121 mg/dL
RALB (9 h): 3 g/dL
TBIL (9 h): 0.022 mg/dL
TC (9 h): 63.8 mg/dL
TG (9 h): 44.6 mg/dL
TP (9 h): 5.6 g/dL
gamma-GTP (9 h): 1.6 IU/L
TERMINAL_BW (24 h): 227.8 g
APTT (24 h): 22.5 s
Bas (24 h): 0%
Eos (24 h): 1%
Fbg (24 h): 306.4 mg/dL
Hb (24 h): 13.4 g/dL
Ht (24 h): 39.2%
Lym (24 h): 76%
MCH (24 h): 21.5 pg
MCHC (24 h): 34.3%
MCV (24 h): 62.9 fL
Mono (24 h): 3%
Neu (24 h): 18.6%
PT (24 h): 16.7 s
Plat (24 h): 118 x10_4/uL
RBC (24 h): 623.4 x10_4/ul
Ret (24 h): 6.9%
WBC (24 h): 94.9 x10_2/uL
KIDNEY_L (24 h): 1 g
KIDNEY_R (24 h): 1.1 g
KIDNEY_TOTAL (24 h): 2.1 g
LIVER (24 h): 10.5 g
A/G (24 h): 1.2
ALP (24 h): 1508.4 IU/L
ALT (24 h): 46.8 IU/L
AST (24 h): 74 IU/L
BUN (24 h): 13.4 mg/dL
CRE (24 h): 0.1 mg/dL
Ca (24 h): 10.5 mg/dL
Cl (24 h): 105 meq/L
DBIL (24 h): 0.002 mg/dL
GLC (24 h): 183.8 mg/dL
IP (24 h): 8.3 mg/dL
K (24 h): 3.9 meq/L
LDH (24 h): 158 IU/L
Na (24 h): 139.4 meq/L
PL (24 h): 135.4 mg/dL
RALB (24 h): 3 g/dL
TBIL (24 h): 0.022 mg/dL
TC (24 h): 74.6 mg/dL
TG (24 h): 53.2 mg/dL
TP (24 h): 5.5 g/dL
gamma-GTP (24 h): 2 IU/L
